Patent US10294202B2, “Pyrrolidinones as herbicides” (FMC Corporation, priority 2013, dated 2019)

Tests used:
radish, wild = test: Test D pre-/postemergence herbicide test; format: in vivo, Raphanus raphanistrum; conditions: for Plant response rating: Postemergence, Radish, Wild, scale 0 to 100; for Plant response rating, Radish, Wild: Preemergence, scale 0 to 100 (0 no effect, 100 complete control)
Source text: (§1) Seeds of plant species selected from bluegrass (annual bluegrass, Poa annua), blackgrass (Alopecurus myosuroides), canarygrass (littleseed canarygrass, Phalaris minor), chickweed (common chickweed, Stellaria media), galium (catchweed bedstraw, Galium aparine), bromegrass, downy (downy bromegrass, Bromus tectorum), field poppy (Papaver rhoeas), field violet (Viola arvensis), foxtail, green (green foxtail, Setaria viridis), deadnettle (henbit deadnettle, Lamium amplexicaule), ryegrass, Italian (Italian ryegrass, Lolium multiflorum), kochia (Kochia scoparia), lambsquarters (Chenopodium album), oilseed rape (Brassica napus), pigweed (Amaranthus retroflexus), chamomile (scentless chamomile, Matricaria inodora), Russian thistle (Salsola kali), speedwell (bird's-eye speedwell, Veronica persica), barley, spring (spring barley, Hordeum vulgare), wheat, spring (spring wheat, Triticum aestivum), buckwheat, wild (wild buckwheat, Polygonum convolvulus), mustard, wild (wild mustard, Sinapis arvensis), oat, wild (wild oat, Avena fatua), radish, wild (wild radish, Raphanus raphanistrum), […]), barley, winter (winter barley, Hordeum vulgare), and wheat, winter (winter wheat, Triticum aestivum) were planted into a silt loam soil and treated preemergence with test chemicals formulated in a non-phytotoxic solvent mixture which included a surfactant. At the same time, these species were planted in pots containing Redi-Earth® planting medium (Scotts Company, 14111 Scottslawn Road, Marysville, Ohio 43041) comprising spaghnum peat moss, vermiculite, wetting agent and starter nutrients and treated with postemergence applications of the test chemicals formulated in the same manner. Plants ranged in height from 2 to 18 cm (1- to 4-leaf stage). Treated plants and controls were maintained in a controlled growth environment for 7 to 21 days after which time all species were compared to controls and visually evaluated. Plant response ratings, summarized in Table D, are based on a scale of 0 to 100 where 0 is no effect and 100 is complete control. A dash (-) response means no test result.

oilseed rape = test: Test D pre-/postemergence herbicide test; format: in vivo, Brassica napus; conditions: for Plant response rating: Postemergence, Oilseed Rape, scale 0 to 100; for Plant response rating, Oilseed Rape: Preemergence, scale 0 to 100 (0 no effect, 100 complete control)
Source text: as §1

chickweed = test: Test D pre-/postemergence herbicide test; format: in vivo, Stellaria media; conditions: for Plant response rating: Chickweed, scale 0 to 100; for Plant response rating, Chickweed: scale 0 to 100 (0 no effect, 100 complete control)
Source text: as §1

windgrass = test: Test D pre-/postemergence herbicide test; format: in vivo, Apera spica-venti; conditions: for Plant response rating: Postemergence, Windgrass, scale 0 to 100; for Plant response rating, Windgrass: Preemergence, scale 0 to 100 (0 no effect, 100 complete control)
Source text: as §1

crabgrass, Brazil = test: Test E preemergence herbicide test; format: in vivo, Digitaria horizontalis; parameters: key: 0 = no effect, 100 = complete control
Source text: (§2) Seeds of plant species selected from corn (Zea mays), soybean (Glycine max), velvetleaf (Abutilon theophrasti), lambsquarters (Chenopodium album), wild poinsettia (Euphorbia heterophylla), pigweed, palmer (palmer pigweed, Amaranthus palmeri), waterhemp (common waterhemp, Amaranthus rudis), surinam grass (Brachiaria decumbens), crabgrass, large (large crabgrass, Digitaria sanguinalis), crabgrass, Brazil (Brazilian crabgrass, Digitaria horizontalis), panicum, fall (fall panicum, Panicum dichotomiflorum), foxtail, giant (giant foxtail, Setaria faberii), foxtail, green (green foxtail, Setaria viridis), goosegrass (Eleusine indica), johnsongrass (Sorghum halepense), ragweed (common ragweed, Ambrosia elatior), barnyardgrass (Echinochloa crus-galli), sandbur (southern sandbur, Cenchrus echinatus), arrowleaf […] rhombifolia), ryegrass, Italian (Italian ryegrass, Lolium multiflorum), dayflower, VA (Virginia dayflower, Commelina virginica), field bindweed (Convolvulus arvensis), morningglory (Ipomoea coccinea), nightshade (eastern black nightshade, Solanum ptycanthum), kochia (Kochia scoparia), nutsedge, yellow (yellow nutsedge, Cyperus esculentus), cocklebur (common cocklebur, Xanthium strumarium), smartweed (ladysthumb smartweed, Polygonum Persicaria) and beggarticks (hairy beggarticks, Bidens pilosa), were planted into a silt loam soil and treated preemergence with test chemicals formulated in a non-phytotoxic solvent mixture which included a surfactant. Treated plants and controls were maintained in a greenhouse for 21 days, after which time all species were compared to controls and visually evaluated. Plant response ratings, summarized in Table E, are based on a scale of 0 to 100 where 0 is no effect and 100 is complete control. A dash (-) response means no test result.

corn = test: Test E preemergence herbicide test; format: in vivo, Zea mays; parameters: key: 0 = no effect, 100 = complete control
Source text: as §2

Row | Structure (SMILES) | Plant response rating (radish, wild; 16 g ai/ha) | Plant response rating (radish, wild; 31 g ai/ha) | Plant response rating (radish, wild; 62 g ai/ha) | Plant response rating (radish, wild; 125 g ai/ha) | Plant response rating (radish, wild; 250 g ai/ha) | Plant response rating (oilseed rape; 16 g ai/ha) | Plant response rating (oilseed rape; 31 g ai/ha) | Plant response rating (oilseed rape; 62 g ai/ha) | Plant response rating (oilseed rape; 125 g ai/ha) | Plant response rating (oilseed rape; 250 g ai/ha) | Plant response rating (chickweed; Postemergence, 16 g ai/ha) | Plant response rating (chickweed; Postemergence, 31 g ai/ha) | Plant response rating (chickweed; Postemergence, 62 g ai/ha) | Plant response rating (chickweed; Postemergence, 125 g ai/ha) | Plant response rating (chickweed; Postemergence, 250 g ai/ha) | Plant response rating (windgrass; 16 g ai/ha) | Plant response rating (windgrass; 31 g ai/ha) | Plant response rating (windgrass; 62 g ai/ha) | Plant response rating (windgrass; 125 g ai/ha) | Plant response rating (windgrass; 250 g ai/ha) | other results
1 | O=C1NCC(c2ccc(F)c(F)c2)C1C(=O)Nc1cccc(F)c1 (racemic) [Compound 12] | 0 | 0 | 20 | 25 | 25 | 10 | 10 | 10 | 20 | 25 | 0 | 0 | 0 | 20 | 30 | 0 | 0 | 0 | 0 | 5 | Plant response rating, Radish, Wild (radish, wild; 16 g ai/ha): 0; Plant response rating, Oilseed Rape (oilseed rape; 31 g ai/ha): 0; Plant response rating, Oilseed Rape (oilseed rape; 62 g ai/ha): 10; Plant response rating, Oilseed Rape (oilseed rape; 125 g ai/ha): 10; Plant response rating, Oilseed Rape (oilseed rape; 250 g ai/ha): 20; Plant response rating, Oilseed Rape (oilseed rape; 16 g ai/ha): 0; Plant response rating, Chickweed (chickweed; Preemergence, 62 g ai/ha): 0; Plant response rating (chickweed; Preemergence, 125 g ai/ha): 0; Plant response rating (chickweed; Preemergence, 250 g ai/ha): 0; Plant response rating, Windgrass (windgrass; 31 g ai/ha): 0; Plant response rating, Windgrass (windgrass; 62 g ai/ha): 0; Plant response rating, Windgrass (windgrass; 125 g ai/ha): 0; Plant response rating, Windgrass (windgrass; 250 g ai/ha): 0; Plant response rating, Windgrass (windgrass; 16 g ai/ha): 0
2 | O=C1NCC(c2ccc(F)cc2)C1C(=O)Nc1ccccc1F (racemic) [Compound 16] |  |  |  |  |  |  |  |  |  |  |  |  |  |  |  |  |  |  |  |  | Plant response rating, Crabgrass, Brazil (crabgrass, Brazil; 16 g ai/ha): 25; Plant response rating, Crabgrass, Brazil (crabgrass, Brazil; 31 g ai/ha): 25; Plant response rating, Crabgrass, Brazil (crabgrass, Brazil; 62 g ai/ha): 65; Plant response rating, Crabgrass, Brazil (crabgrass, Brazil; 125 g ai/ha): 80; Plant response rating, Crabgrass, Brazil (crabgrass, Brazil; 250 g ai/ha): 98; Plant response rating, Corn (corn; 16 g ai/ha): 0; Plant response rating, Corn (corn; 31 g ai/ha): 0; Plant response rating, Corn (corn; 62 g ai/ha): 0; Plant response rating, Corn (corn; 125 g ai/ha): 0; Plant response rating, Corn (corn; 250 g ai/ha): 0
3 | O=C1NCC(c2cc(F)c(F)c(F)c2)C1C(=O)Nc1ccccc1C(F)(F)F (racemic) [Compound 33] | 0 | 0 | 0 | 0 | 0 | 0 | 0 | 10 | 20 | 30 | 0 | 0 | 0 | 10 | 10 | 0 | 0 | 0 | 0 | 0 | 
4 | O=C1NCC(c2cc(F)c(F)c(F)c2)C1C(=O)Nc1ccccc1F (racemic) [Compound 34] | 0 | 0 | 0 | 0 | 0 | 0 | 0 | 0 | 0 | 20 | 0 | 0 | 0 | 10 | 20 | 0 | 0 | 0 | 0 | 0 | 
5 | O=C1NCC(c2cccc(Br)c2)C1C(=O)Nc1ccccc1F (stereo not shown) [Compound 66] |  |  |  |  |  |  |  |  |  |  |  |  |  |  |  |  |  |  |  |  | Plant response rating, Crabgrass, Brazil (crabgrass, Brazil; 16 g ai/ha): 85; Plant response rating, Crabgrass, Brazil (crabgrass, Brazil; 31 g ai/ha): 85; Plant response rating, Crabgrass, Brazil (crabgrass, Brazil; 62 g ai/ha): 95; Plant response rating, Crabgrass, Brazil (crabgrass, Brazil; 125 g ai/ha): 98; Plant response rating, Crabgrass, Brazil (crabgrass, Brazil; 250 g ai/ha): 98; Plant response rating, Corn (corn; 16 g ai/ha): 0; Plant response rating, Corn (corn; 31 g ai/ha): 0; Plant response rating, Corn (corn; 62 g ai/ha): 0; Plant response rating, Corn (corn; 125 g ai/ha): 0; Plant response rating, Corn (corn; 250 g ai/ha): 0
6 | O=C1NCC(c2ccc(C(F)(F)F)cc2)C1C(=O)Nc1ccc(F)c(F)c1F (stereo not shown) [Compound 232] |  |  |  |  |  |  |  |  |  |  |  |  |  |  |  |  |  |  |  |  | Plant response rating, Crabgrass, Brazil (crabgrass, Brazil; 31 g ai/ha): 95; Plant response rating, Crabgrass, Brazil (crabgrass, Brazil; 62 g ai/ha): 98; Plant response rating, Crabgrass, Brazil (crabgrass, Brazil; 125 g ai/ha): 98; Plant response rating, Crabgrass, Brazil (crabgrass, Brazil; 250 g ai/ha): 98; Plant response rating, Corn (corn; 31 g ai/ha): 0; Plant response rating, Corn (corn; 62 g ai/ha): 0; Plant response rating, Corn (corn; 125 g ai/ha): 0; Plant response rating, Corn (corn; 250 g ai/ha): 0
7 | O=C1NCC(c2cccc(C(F)(F)F)c2)C1C(=O)Nc1cccc(F)c1F (stereo not shown) [Compound 241] |  |  |  |  |  |  |  |  |  |  |  |  |  |  |  |  |  |  |  |  | Plant response rating, Radish, Wild (radish, wild; 31 g ai/ha): 0; Plant response rating, Radish, Wild (radish, wild; 62 g ai/ha): 0; Plant response rating, Radish, Wild (radish, wild; 125 g ai/ha): 0; Plant response rating, Radish, Wild (radish, wild; 250 g ai/ha): 0; Plant response rating, Oilseed Rape (oilseed rape; 31 g ai/ha): 0; Plant response rating, Oilseed Rape (oilseed rape; 62 g ai/ha): 0; Plant response rating, Oilseed Rape (oilseed rape; 125 g ai/ha): 5; Plant response rating, Oilseed Rape (oilseed rape; 250 g ai/ha): 10; Plant response rating, Chickweed (chickweed; Preemergence, 31 g ai/ha): 90; Plant response rating, Chickweed (chickweed; Preemergence, 62 g ai/ha): 80; Plant response rating, Chickweed (chickweed; Preemergence, 125 g ai/ha): 95; Plant response rating (chickweed; Preemergence, 250 g ai/ha): 100; Plant response rating, Windgrass (windgrass; 31 g ai/ha): 65; Plant response rating, Windgrass (windgrass; 62 g ai/ha): 90; Plant response rating, Windgrass (windgrass; 125 g ai/ha): 95; Plant response rating, Windgrass (windgrass; 250 g ai/ha): 98
